Test results taken from US11464750B2, “Anticancer agent and use thereof” (priority 2017, dated 2022).

Experiments:
Assay type in all cases: cell-based, human
BALL-1 cells [1] = test: MTT assay, BALL-1 cells; settings: 0.01, 0.05, 0.1, 0.5, and 1 μM, 48 hours
Procedure: BALL-1 cells of a cell line derived from […], TKG0210 cells of a human myeloid leukemia cell line, and TKG0377 cells of a human T cell acute leukemia cell line were seeded in 96-well plates at 2.5×10^4 cells/well/100 μL, and cultured for 48 hours in the presence of 3EZ,20Ac-ingenol at final concentrations of 0 (control), 0.5, 1, 5, and 10 μM. Subsequently, cell proliferation was examined by MTT assay using a Cell Proliferation Kit 1 (Roche Applied Science).
BALL-1 cells were exposed to 3EZ,20Ac-ingenol, 3EE,20Ac-ingenol, 20Ac-ingenol, and ingenol at concentrations of 0.01, 0.05, 0.1, 0.5, and 1 μM for 48 hours. Thereafter, cell proliferation was examined by MTT assay. Cells that were not exposed to the chemical were used as controls. The chemical formulas of 3EZ,20Ac-ingenol, 3EE,20Ac-ingenol, and 20Ac-ingenol are as described above. The chemical formula of ingenol is shown in the following Formula (7).

TKG0210 cells = test: Cell Death Detection ELISA, TKG0210; settings: 0.5 μM, 72 hours
Procedure: The induction of apoptosis by 3EZ,20Ac-ingenol treatment was examined by detecting histone-binding DNA fragmentation in the cytoplasm using a Cell Death Detection ELISA kit (Roche Applied Science).
Specifically, BALL-1 cells, TKG0210 cells, and TKG0377 cells were inserted into tubes at 5×10^4 cells/well/200 μL, and incubated for 6, 12, 24, 48, and 72 hours in the presence of 3EZ,20Ac-ingenol at a final concentration of 0.5 μM. Subsequently, the respective cells were lysed in a lysis buffer. Subsequently, the supernatant of cell debris of the respective cells was collected and transferred to an ELISA plate, and an absorbance at a wavelength of 405 nm was measured to measure the induction of apoptosis.

BALL-1 cells [2] = test: MTT assay, BALL-1 cells with siRNA against ATR; settings: 0.5 μM, 48 hours
Procedure: An effect of ATR activity on cell proliferation inhibition was examined. In the same manner as in Experimental Example 9, siRNA against ATR was introduced into BALL-1 cells, and the cells were incubated for 48 hours. Subsequently, a cell medium was replaced with a medium containing 3EZ,20Ac-ingenol at a final concentration of 0.5 μM, and culturing was performed for 48 hours.
For comparison, BALL-1 cells cultured for 48 hours in a medium containing 3EZ,20Ac-ingenol at a final concentration of 0.5 μM without introduction of siRNA were used. In addition, as controls, cells into which control siRNA (“ON-TARGET Plus Nontargeting pool,” GE Dharmacon) was introduced and which were then cultured in the absence of 3EZ,20Ac-ingenol were used.

[3] = system: phosphorylated Akt (Ser^473); test: Western blotting, p-Akt (Ser473), TKG0210 cells; settings: 0.5 μM
Procedure: The effect of 3EZ,20Ac-ingenol treatment on a PI3K/Akt signaling pathway was examined. Specifically, BALL-1 cells, TKG0210 cells, and TKG0377 cells were cultured for 48 hours in the presence of 3EZ,20Ac-ingenol at a final concentration of 0.5 μM, and by Western blotting using an anti-p-Akt (Ser^473) antibody (Cell Signaling Technology), phosphorylation of the 473th serine residue of an Akt protein in respective fractions of the entire cell, a nucleus, and a cytoplasm was analyzed. In addition, cells cultured in the absence of 3EZ,20Ac-ingenol were used as controls.
BALL-1 cells, TKG0210 cells, and TKG0377 cells were cultured for 24 and 48 hours in the presence of 3EZ,20Ac-ingenol at a final concentration of 0.5 μM, and abundances of p-Akt in the nuclear fraction and the cytoplasm fraction were analyzed by Western blotting. In addition, respective cells cultured in the absence of 3FZ,20Ac-ingenol were used as controls.

[4] = system: p-PTEN (Ser^380/Thr^382/383); test: Western blotting, p-PTEN, BALL-1 cells; settings: 0.5 μM, 3 to 48 hours, entire cell fraction
Procedure: The effect of 3EZ,20Ac-ingenol treatment on PTEN, p-PTEN, and p-Akt of BALL-1 cells was examined. First, BALL-1 cells were cultured for 3, 6, 12, 24, and 48 hours in the presence of 3EZ,20Ac-ingenol at a final concentration of 0.5 μM, and by Western blotting using an anti-PTEN antibody (Santa Cruz), an anti-p-PTEN (Ser^380/Thr^382/383) antibody (Santa Cruz), and an anti-p-Akt (Ser^473) antibody (Cell Signaling Technology), abundances of PTEN, p-PTEN, and p-Akt in the entire cell fraction were analyzed. In addition, cells cultured in the absence of 3EZ,20Ac-ingenol were used as controls.

cyclin D1 = test: Western blotting, cyclin D1, Panc-1 cells; settings: 3 μM
Procedure: (§1) Specifically, first, JeKo-1 cells were cultured for 0 (control), 12, 24, and 48 hours in the presence of 0.5 μM of 3EZ,20Ac-ingenol. In addition, Panc-1 cells were cultured for 0 (control), 12, 24, and 48 hours in the presence of 3 μM of 3EZ,20Ac-ingenol.
Subsequently, abundances of cyclin D1 in entire cell fractions, nuclear fractions, and cytoplasm fractions of the respective cells were analyzed by Western blotting.

GSK-3β = test: Western blotting, GSK-3β, JeKo-1 cells; settings: 0.5 μM, entire cell, 24 hours
Procedure: as §1
(§2) Subsequently, abundances of GSK-3β and p-GSK-3β in the respective cells were analyzed by Western blotting using an anti-GSK-3β antibody (Cell Signaling Technology) and an anti-p-GSK-3β (Ser^9) antibody (Cell Signaling Technology). Furthermore, as a loading control, actin protein was detected using an anti-actin antibody (Sigma).

p-GSK-3β (Ser^9) = test: Western blotting, p-GSK-3β (Ser9), Panc-1 cells; settings: 3 μM, entire cell
Procedure: as §1, §2

**Q.** How did the “inhibition of proliferation of the BALL-1 cells” value (BALL-1 cells [1]) turn out when `CCCCC/C=C\C=C\C(=O)O[C@H]1C(C)=C[C@]23C(=O)[C@@H](C=C(COC(C)=O)[C@@H](O)[C@]12O)[C@H]1[C@@H](C[C@H]3C)C1(C)C` [3EZ,20Ac-ingenol, 3-O-(2′E,4′Z-decadienoyl)-20-O-acetylingenol] was run?
**A.** a significant level of inhibition of proliferation

**Q.** What about the “amount of fragmented DNA (apoptosis)” value (TKG0210 cells) of the same compound?
**A.** almost no fragmented DNA was detected

**Q.** What about the “reduction of cell proliferation inhibition by knockdown of ATR” value (BALL-1 cells [2]) of the same compound?
**A.** about 20%

**Q.** What about the “abundance of p-Akt” value ([3]; 24 and 48 hours, cytoplasm fraction and nuclear fraction) of the same compound?
**A.** no decrease in abundance of p-Akt was observed

**Q.** And the “abundance of p-Akt” value ([3]; 48 hours, cytoplasm fraction)?
**A.** remained almost unchanged

**Q.** What about the “abundance of p-Akt” value ([3]; 48 hours, entire cell) of the same compound?
**A.** a decrease in abundance of phosphorylated Akt

**Q.** What about the “abundance of p-Akt” value ([3]; 48 hours, nuclear fraction) of the same compound?
**A.** remained almost unchanged

**Q.** And the “abundance of p-PTEN” value [4]?
**A.** an abundance of p-PTEN increased

**Q.** And the “abundance of cyclin D1” value (cyclin D1; cytoplasm fraction, 12 to 48 hours)?
**A.** an abundance of cyclin D1 decreased

**Q.** What about the “expression level of cyclin D1” value (cyclin D1; entire cell fraction, 12 to 24 hours) of the same compound?
**A.** temporarily increased

**Q.** And the “expression level of cyclin D1” value (cyclin D1; entire cell fraction, after 24 hours)?
**A.** then decreased thereafter

**Q.** What about the “expression level of cyclin D1” value (cyclin D1; nuclear fraction, 12 hours) of the same compound?
**A.** temporarily increased

**Q.** What about the “expression level of cyclin D1” value (cyclin D1; nuclear fraction, after 24 hours) of the same compound?
**A.** decreased after 24 hours

**Q.** And the “GSK-3β (an active type)” value (GSK-3β)?
**A.** an increase in GSK-3β was observed

**Q.** And the “p-GSK-3β (an inactive type)” value (p-GSK-3β (Ser^9))?
**A.** a decrease in p-GSK-3β (an inactive type) was observed
